Assay results taken from article PMC11647902, “Design, Synthesis, and Biological Evaluation of [1,2,5]Oxadiazolo[3,4-b]pyridin-7-ol as Mitochondrial Uncouplers for the Treatment of Obesity and Metabolic Dysfunction-Associated Steatohepatitis” (Journal of Medicinal Chemistry, 2024).

Assays:
[1] = tested on: L6 rat myoblasts; assay: OCR Seahorse assay (oxygen consumption rate, mitochondrial uncoupling); conditions: Rattus norvegicus; for EC50: L6; for Emax at 200 µM: L6, read-out: % of BAM15 OCR, L6 myoblasts, integrated area under OCR dose curve above baseline relative to BAM15 of same experiment, NA = No Activity, highest tested concentration 200 μM
Experimental: With 7 and 9 derivatives in hand, we screened for mitochondrial uncoupling activity as a function of oxygen consumption rate (OCR). […] OCR was measured using an Agilent Seahorse XF24 or XFe96 Analyzer (Agilent Technologies, Santa Clara, CA). L6 myoblasts were seeded in a Seahorse 24 or 96-well tissue culture plate at a density of 3.5 × 10^4 cells/well. The cells were then allowed to adhere overnight. […] Compounds were injected during the assay, and OCR was measured using 2 min measurement periods. Cells were treated with a single drug concentration per well and measured over a 90 min period. Two wells were used per condition and, where applicable, results from multiple plates were averaged together. The first three measurements after injection for each concentration were averaged to produce a dose curve. […] AUC values were also calculated using the same software.

[2] = in vivo; conditions: male, C57BL/6, mouse, plasma, po, 10 mg/kg
[3] = parameters: method as in PMID 38629387; conditions: STEP-1 clinical trials; cited from earlier work
[4] = tested on: GAN mouse model of MASH; assay: Gubra-Amylin NASH (GAN) diet mouse model of MASH; type: in vivo
[5] = tested on: L6 myoblast cells; assay: Mitochondrial stress test and self-limiting test (OCR); conditions: L6 myoblasts
[6] = 200 mg kg^–1 in GAN diet, 4 weeks

Cmax at 24 h [2] [µM] | half-life at 24 h [2] [h] | Compound | EC50 [1] [µM] | Emax at 200 µM [1] [%] | other results
6 | 0.9 ± 0.07 | Oc1c(Nc2ccc(-c3ccc(F)cc3)cc2)cnc2nonc12 [7ao, 6-((4′-Fluoro-[1,1′-biphenyl]-4-yl)amino)-[1,2,5]oxadiazolo[3,4-b]pyridin-7-ol] | 1.7 ± 0.2 | < 50 | 
 |  | semaglutide |  |  | loss of lean mass [3]: up to 40%
4 | 1.8 ± 0.25 | Oc1c(Nc2ccc(-c3ccc(Cl)cc3)cc2)cnc2nonc12 [7ap, 6-((4′-Chloro-[1,1′-biphenyl]-4-yl)amino)-[1,2,5]oxadiazolo[3,4-b]pyridin-7-ol] | 0.9 ± 0.1 | < 50 | 
4 | 0.9 ± 0.34 | Oc1c(Nc2ccc(-c3cccc(F)c3)cc2)cnc2nonc12 [7al, 6-((3′-Fluoro-[1,1′-biphenyl]-4-yl)amino)-[1,2,5]oxadiazolo[3,4-b]pyridin-7-ol] | 1.2 ± 0.1 | 36 | 
 |  | Oc1c(Nc2ccc(-c3ccc(C(F)(F)F)nc3)cc2)cnc2nonc12 [7ar, 6-((4-(6-(Trifluoromethyl)pyridin-3-yl)phenyl)amino)-[1,2,5]oxadiazolo[3,4-b]pyridin-7-ol] | 7 ± 1.9 | 17 | 
 |  | Cc1ccc(Nc2cnc3nonc3c2O)cc1 [7b, 6-(p-Tolylamino)-[1,2,5]oxadiazolo[3,4-b]pyridin-7-ol] | 49 | 38 | 

Compound | Cmax at 24 h [2] [µM] | half-life at 24 h [2] [h] | EC50 [1] [µM] | Emax at 200 µM [1] [%] | other results
Oc1c(Nc2ccc(-c3cccc(Cl)c3)cc2)cnc2nonc12 [SHO1122147, 6-((3′-Chloro-[1,1′-biphenyl]-4-yl)amino)-[1,2,5]oxadiazolo[3,4-b]pyridin-7-ol] | 35 | 2 ± 0.07 | 3.6 ± 0.1 | 55 | loss of body weight ([4]; 200 mg kg^–1 admixed in GAN diet, 4 weeks): 15.4%; fat mass as percent of body weight (EchoMRI) [4, 6]: lowering fat mass; fat-free lean mass as percent of body weight (EchoMRI) [4, 6]: increasing fat-free lean mass; liver mass [4, 6]: no significant change; liver triglycerides [4, 6]: decreased; plasma alanine aminotransferase (ALT) [4, 6]: decreased; fibrosis stage ([4]; 200 mg kg^–1 in GAN diet, 4 weeks, compared to GAN controls): No changes; MAFLD activity score ([4]; 200 mg kg^–1 in GAN diet, 4 weeks, primarily due to decreased hepatic steatosis): significant decrease; caloric intake ([4]; 200 mg kg^–1 in GAN diet, food intake monitored daily): no significant changes; body temperature ([4]; 200 mg kg^–1 day^–1): without changes in body temperature; respiration (OCR) in self-limiting test ([5]; SHO1122147 10 μM, BAM15 1.1 μM): 200%; OCR after blockade with oligomycin ([5]; oligomycin 1 μM, then SHO1122147 10 μM or BAM15 1.1 μM at t = 40 min): increased OCR
